Tested on: human GABA α1β3β2 receptors
Test: GABAa, 3H-muscimol binding assay
Settings: for % GABA Example: activity at 10 μM as percentage of activity of control compound P18 at 10 μM (increase of 3H-muscimol binding); for % GABA Parent: parent compound without R^4 heteroaryl, activity at 10 μM as percentage of activity of control compound P18 at 10 μM
Description: Membranes from recombinant Ltk cells expressing human GABA α1β3β2 receptors were suspended in an ice-cold solution of 100 mM KCl, 10 mM KH2PO4, adjusted to pH=7.4 with 1 M KOH. Tritiated muscimol (PerkinElmer, Wellesley, Mass.) at a concentration of 2 nM, and serial five-fold dilutions of test compounds at 10 μM, 2.0 μM, 400 nM, 80 nM, 16 nM, 3.2 nM, 0.64 nM and 0.13 nM were mixed in 96-well plates containing 200 μL of membrane suspension. Cold muscimol and compound P18 were used as negative and positive controls respectively. The assay mixture was incubated at 4° C. for 2 hours, then harvested on GF/C filter plates and washed with ice-cold 50 mM Tris-Ci buffer. The filter plates were dried and counted in a Wallac MicroBeta® Trilux detector (Model 1450-030; PerkinElmer, Wellesley, Mass.), and the data were downloaded and analyzed using Prism 3.0. The activity of compound P18 at 10 μM was used as reference for the test compounds, and it was expressed as increasing ^3H-muscimol binding by 100%, whereas cold muscimol at 2 μM antagonized ^3H-muscimol binding by 100%. The tested compound's activity at 10 μM was expressed as a percentage of compound P18's activity at 10 μM.
As a reference, the parent compound (the compound not substituted with a R^4 heteroaryl, such as pyrazole or 1,2,4-oxadiazole, as indicated below) is also shown with its Gamma Amino Butyric Acid (GABA) Receptor activity. […] As a result, the compounds of the present invention in which R^4 is a heteroaryl, such as pyrazole or 1,2,4-oxadiazole, have the unexpected benefits of minimizing off target activity at the GABA receptor.
Note: % GABA is defined as the GABA activity of the indicated compound expressed as a percentage of the activity of control compound P18. NA=data not available.

Row | SMILES | % GABA Example | % GABA Parent
1 | CC(C)(C)C(=O)c1oc2nc(-c3ccc(-c4cn[nH]c4)cc3Cl)c(-c3ccc(Cl)cc3)cc2c1NC(=O)CO [Example 32, N-[5-(4-Chlorophenyl)-6-[2-chloro-4-(1H-pyrazol-4-yl)phenyl]-2-(2,2-dimethylpropanoyl)furo[2,3-b]pyridin-3-yl]-2-hydroxyacetamide] | 29% | –
2 | CC(=O)Nc1c(C(=O)C(C)C)oc2nc(-c3ccc(-c4c[nH]nc4C)cc3Cl)c(-c3ccc(Cl)cc3)cc12 [Example 33, N-[6-[2-Chloro-4-(3-methyl-1H-pyrazol-4-yl)phenyl]-5-(4-chlorophenyl)-2-isobutyrylfuro[2,3-b]pyridin-3-yl]acetamide] | 34% | –
3 | Cc1n[nH]cc1-c1ccc(-c2nc3oc(C(=O)C(C)(C)O)c(C)c3cc2-c2ccc(Cl)cc2)c(Cl)c1 [Example 34, 1-[6-[2-Chloro-4-(3-methyl-1H-pyrazol-4-yl)phenyl]-5-(4-chlorophenyl)-3-methylfuro[2,3-b]pyridin-2-yl]-2-hydroxy-2-methylpropan-1-one] | 29% | –
4 | CCc1c(C(=O)C(C)(C)O)oc2nc(-c3ccc(-c4c[nH]nc4C)cc3Cl)c(-c3ccc(Cl)cc3)cc12 [Example 35, 1-[6-[2-Chloro-4-(3-methyl-1H-pyrazol-4-yl)phenyl]-5-(4-chlorophenyl)-3-ethylfuro[2,3-b]pyridin-2-yl]-2-hydroxy-2-methylpropan-1-one] | 59% | –
5 | Cc1n[nH]cc1-c1ccc(-c2nc3oc(C(=O)C(C)(C)C)c(C)c3cc2-c2ccc(Cl)cc2)c(Cl)c1 [Example 36, 1-[6-[2-Chloro-4-(3-methyl-1H-pyrazol-4-yl)phenyl]-5-(4-chlorophenyl)-3-methylfuro[2,3-b]pyridin-2-yl]-2,2-dimethylpropan-1-one] | 16% | –
6 | Cc1n[nH]cc1-c1ccc(-c2nc3oc(C(=O)C(C)C)c(N4CCCC4=O)c3cc2-c2ccc(Cl)cc2)c(Cl)c1 [Example 39, 1-[6-[2-Chloro-4-(3-methyl-1H-pyrazol-4-yl)phenyl]-5-(4-chlorophenyl)-2-isobutyrylfuro[2,3-b]pyridin-3-yl]pyrrolidin-2-one] | 29% | –
7 | Cc1c(C(=O)C(C)(C)C)oc2nc(-c3ccc(-c4ncon4)cc3Cl)c(-c3ccc(Cl)cc3)cc12 [Example 42, 1-[6-[2-Chloro-4-(1,2,4-oxadiazol-3-yl)phenyl]-5-(4-chlorophenyl)-3-methylfuro[2,3-b]pyridin-2-yl]-2,2-dimethylpropan-1-one] | 5% | –
8 | CC(=O)Nc1c(C(=O)C(C)(C)O)oc2nc(-c3ccccc3Cl)c(-c3ccc(Cl)cc3)cc12 [Example P1, reference compound] | – | 99%
9 | CC(=O)Nc1c(C(=O)C(C)C)oc2nc(-c3ccccc3Cl)c(-c3ccc(Cl)cc3)cc12 [Example P2, reference compound] | – | 107%
10 | CC(=O)Nc1c(C(=O)C(C)(C)C)oc2nc(-c3ccccc3Cl)c(-c3ccc(Cl)cc3)cc12 [Example P3, reference compound] | – | 67%
11 | CCC(=O)c1oc2nc(-c3ccccc3Cl)c(-c3ccc(Cl)cc3)cc2c1NC(C)=O [Example P4, reference compound] | – | 76%
12 | CC(C)(C)C(=O)c1oc2nc(-c3ccccc3Cl)c(-c3ccc(Cl)cc3)cc2c1N [Example P5, reference compound] | – | 33%
13 | Cc1c(C(=O)C(C)(C)O)oc2nc(-c3ccccc3Cl)c(-c3ccc(Cl)cc3)cc12 [Example P7, reference compound] | – | 75%
14 | Cc1c(C(=O)C(C)(C)C)oc2nc(-c3ccccc3Cl)c(-c3ccc(Cl)cc3)cc12 [Example P8, reference compound] | – | 25%
15 | Cc1c(S(=O)(=O)C(C)(C)C)oc2nc(-c3ccccc3Cl)c(-c3ccc(Cl)cc3)cc12 [Example P9, reference compound] | – | 29%
16 | Cc1c(C(=O)CC(C)C)oc2nc(-c3ccccc3Cl)c(-c3ccc(Cl)cc3)cc12 [Example P10, reference compound] | – | 59%
17 | C[C@H](O)C(=O)Nc1c(C(=O)C(C)(C)C)oc2nc(-c3ccccc3Cl)c(-c3ccc(Cl)cc3)cc12 [Example P11, reference compound] | – | 94%
18 | CC(C)(C)C(=O)c1oc2nc(-c3ccccc3Cl)c(-c3ccc(Cl)cc3)cc2c1C(N)=O [Example P12, reference compound] | – | 40%
19 | CC(C)(O)C(=O)c1oc2nc(-c3ccccc3Cl)c(-c3ccc(Cl)cc3)cc2c1N [Example P13, reference compound] | – | 91%
20 | Cc1c(C(=O)C(C)C)oc2nc(-c3ccccc3Cl)c(-c3ccc(Cl)cc3)cc12 [Example P14, reference compound] | – | 51%
21 | CCC(=O)c1oc2nc(-c3ccccc3Cl)c(-c3ccc(Cl)cc3)cc2c1C [Example P15, reference compound] | – | 50%
22 | CC(C)(C)C(=O)c1oc2nc(-c3ccccc3Cl)c(-c3ccc(Cl)cc3)cc2c1NC(=O)CO [Example P16, reference compound] | – | 90%
23 | CC(C)C(=O)c1oc2nc(-c3ccccc3Cl)c(-c3ccc(Cl)cc3)cc2c1N1CCCC1=O [Example P17, reference compound] | – | 100%
24 | CC(C)(O)C(=O)c1oc2nc(-c3ccccc3Cl)c(-c3ccc(Cl)cc3)cc2c1NC(=O)CO [Example P18, reference compound] | – | 100%
25 | CCc1c(C(=O)C(C)(C)O)oc2nc(-c3ccccc3Cl)c(-c3ccc(Cl)cc3)cc12 [Example P19, reference compound] | – | 96%
26 | CC(C)(C)C(=O)c1oc2nc(-c3ccccc3Cl)c(-c3ccc(Cl)cc3)cc2c1CO [Example P20, reference compound] | – | 50%
27 | CC(=O)c1c(C(=O)C(C)(C)C)oc2nc(-c3ccccc3Cl)c(-c3ccc(Cl)cc3)cc12 [Example P21, reference compound] | – | 62%

From US20080269279A1, “Substituted furo[2,3-B] pyridine derivatives as cannabinoid-1 receptor modulators” (priority 2007, published 2008)
